Laboratory results reported in publication PMC4851381, “High Throughput Screening Identifies Novel Lead Compounds with Activity against Larval, Juvenile and Adult Schistosoma mansoni” (PLoS Neglected Tropical Diseases, 2016).
Like-named read-outs stand apart in the source and are kept apart here.

What was measured:
S. mansoni schistosomula = assay: Larval HTS and larval dose response (image-based phenotype and motility of schistosomula); assay type: cell-based, Schistosoma mansoni; settings: for Motility score / Phenotype score: 10μM control wells, negative control adjusted to zero; for EC50: Schistosoma mansoni, 72 h, 3 day assay, geometric mean
Experimental: Experiments were performed using the Puerto Rican strain of S. mansoni maintained in Biomphalaria glabrata and CD1 mice. The strain of snail was one bred by Prof Mike Doenhoff (Nottingham University) for high susceptibility to S. mansoni and ease of breeding in large numbers to high density. Careful attention was paid to controlling infections with rotifers which otherwise would contaminate the HTS schistosomula preparations as well as affecting snail viability. This included recovery of egg masses on short length pieces of polypropylene tubing placed into the breeding tanks and treatment of these with 3 x 10 seconds immersion in 70% ethanol with 3 minutes soaking in clean water in between alcohol treatments. Schistosomula were mechanically prepared as previously described with the modification of using a 45% and 70% Percoll gradient, and the cercarial heads recovered from the 70% layer. All centrifugation steps were done at 350x g. The schistosomula generated were then incubated overnight in M169 supplemented with 100U/ml Penicillin, 300μg/ml Streptomycin, 0.25μg/ml Fungizone (Amphotericin B) (Gibco, UK) and 5% Foetal Calf serum.
The larval HTS was run as described previously. Compound libraries were provided in 384 well plates as liquid either (i) small volumes in polypropylene 384 V-bottom storage plates (Greinerbio-one) that were diluted and 500nL dispensed into black 384 imaging plates (ViewPlate 6007460; PerkinElmer) using the Biomek FxP (Beckman Coulter) or (ii) in an assay-ready format from which a 40nL volume was transferred into wells of imaging plates. […] Therefore, to prevent fungal contamination 0.25μg/ml (0.27μM) of amphotericin B (AMP-B) was added to cultures both during the overnight culture prior to plating and during the 3 day assay.
(§1) The primary HTS and subsequent juvenile and adult screens were run as single point (SP) assays at 10–12.5μM depending on the concentrations in the compound collections. Compounds were tested in duplicate. Where necessary, repeat testing was carried out on re-supplied liquid samples.
(§2) Compounds with activity against all three parasite stages were tested in parallel dose response (DR) assays against juvenile worms and MRC-5 cells. Promising compounds were then tested in the adult DR. For the parasite DR (larvae, juveniles and adults) the concentrations tested were two fold dilutions starting from 2x the primary screening concentrations (i.e. 20–25μM).
(§3) IC50 values were calculated from the drug concentration–response curves using Microsoft XLfit version 5.1.0.0 (2006–2008 ID Business Solutions Ltd). Results were expressed as the geometric mean IC50.

[1] = test system: S. mansoni juvenile worms; assay: Juvenile worm assay (3 week old worms), single point and dose response; assay type: cell-based; settings: Schistosoma mansoni
Experimental: (§4) For production of S. mansoni juvenile or adult worms, mice were infected subcutaneously under mild isoflurane (Merial Animal Health Ltd (UK)) anaesthesia with, respectively 1400 (for juveniles) or 450 cercariae (for adults). Worms were recovered from infected mice using sterile techniques by portal perfusion 3 weeks (for juveniles) or 6 weeks (for adults) post-infection using warm perfusion medium (Dulbecco’s Modified Eagle’s Medium [DMEM], 2mM L-glutamine, 100 Units/ml penicillin, 100μg/ml streptomycin, 20mM Hepes, 10 Units/ml heparin [Sigma, UK] [8]. Adult worms were washed free of red blood cells using the perfusion medium, and finally placed in culture in complete medium (cDMEM: DMEM, 2mM L-glutamine, 100 Units/ml penicillin, 100μg/ml streptomycin, 10% foetal calf serum (FCS) at 37°C, in an atmosphere of 5% CO2. Juvenile worms were sedimented successively following washing with cold perfusion medium and then suspended in cold cDMEM until dispensed to avoid attachment to the plastic tubes.
(§5) For the juvenile assay the concentration of worms was adjusted to 40/ml cDMEM and, prior to dispensing, the suspension was cooled on ice to prevent adherence of the worms to the plastic bottles. After swirling to resuspend worms,150μL of suspension was added to the wells of 96 well microtitre plates (Nunc, Thermo Fisher Scientific, UK). Wells were quickly checked and those with <5 worms were marked. The remainder were made up to 200μL and the deficient wells topped up with a worm suspension to ensure that all wells had ≥5 worms. The adult worm assay was as described in [8] except that 1ml cultures containing 3 worm pairs were generally used. Both the juvenile and adult worm assays were assessed for activity on days +1 and +5. Drug effects were determined by assessing the viability of individual worms and calculating the mean percentage inhibition, a hit being defined as ≥70% reduction in viability.
as §1, with “samples. All compounds of interest were re-tested as solid compounds or by repeat synthesis and activity confirmed.” for “samples.”
as §2, §3

S. mansoni adult worms = assay: Adult worm assay, single point and dose response; assay type: cell-based; settings: Schistosoma mansoni
Experimental: as §4, §5
as §1, with “samples. All compounds of interest were re-tested as solid compounds or by repeat synthesis and activity confirmed.” for “samples.”
as §2, §3

[2] = Cytotoxicity assay (Alamar blue); assay type: cell-based; settings: human
Experimental: Activity against mammalian cells was determined using MRC-5 cells. Cells were maintained in Minimum Essential Medium supplemented with glutamax (Gibco, UK), 1% non-essential amino acids (Gibco, UK) and 10% Foetal bovine serum (Gibco, UK). They were harvested by treatment with 0.25% Trypsin-EDTA for 3 minutes and diluted to 1x10^5/ml. 100μl aliquots of the cell suspension were then plated in 96 well plates (Nunc, Thermo Fisher Scientific, UK). The plates were left to incubate for 24 hours at 37°C and 5% CO2 in a humidified incubator. Cytotoxicity DR assays were set up 24 hours post incubation at 5% CO2 and 37°C, with compounds prepared at 3-fold dilutions starting from 50μM. Dilutions were added to the cells such that the final % DMSO/well was 0.5%. Each drug concentration was tested in duplicate. On each 96 well plate there were negative control wells of media only, MRC-5 cells only and MRC-5 cells with 0.5% DMSO. For positive control wells doxorubicin hydrochloride (Sigma-Aldrich, UK) was added to the cells at 100μM concentration. The cultures were then maintained for a further 72 hours at 37°C and 5% CO2. Drug cytotoxicity was determined using the redox indicator Alamar blue (AbD Serotec, UK). 10μl of Alamar Blue was added to each well and the plates incubated for 4 hours at 37°C and 5% CO2 atmosphere. The fluorescence intensity was measured using a Spectramax Gemini plate reader (Molecular Devices, UK) using an excitation wavelength of 530 nm and an emission wavelength of 580 nm.
as §3

[3] = 24 h, day 1, read-out: Juvenile (% motility reduction) DAY 1
[4] = 120 h, day 5, read-out: Juvenile (% motility reduction) DAY 5
[5] = first value of cell, geometric mean, * n = 1
[6] = 24 h, day 1, read-out: Adult % motility reduction DAY 1
[7] = 120 h, day 5, read-out: Adult % motility reduction DAY 5
[8] = value in parentheses (second sample; solid vs original liquid sample)
[9] = MRC-5 cells, first value of cell, 72 hours, read-out: MRC5 CC50
[10] = MRC-5 cells, value in parentheses (second sample; solid vs original liquid sample), read-out: MRC5 CC50

Cc1c(-c2cnccn2)ssc1=S [Oltipraz]
Motility score (S. mansoni schistosomula; Enamine library plates): -0.91 ±0.04 | Phenotype score (S. mansoni schistosomula; Enamine library plates): -0.49 ±0.13 | Motility score (S. mansoni schistosomula; GSK library plates): -0.93 ±0.03 | Phenotype score (S. mansoni schistosomula; GSK library plates): -0.64 ±0.06 | Phenotype score (S. mansoni schistosomula; MMV library plates, mean ±SD): -0.55 ±0.06 | Motility score (S. mansoni schistosomula; MMV library plates): -0.95 ±0.02 | Motility score (S. mansoni schistosomula; Pfizer library plates): -0.94 ±0.02 | Phenotype score (S. mansoni schistosomula; Pfizer library plates): -0.56 ±0.08 | EC50 (S. mansoni schistosomula): 0.5 µM | inhibition at 12.5 µM [1, 3]: 51% | inhibition at 12.5 µM [1, 4]: 100% | EC50 [1, 5]: 0.8 µM | inhibition at 12.5 µM (S. mansoni adult worms; [6]): 50% | inhibition at 12.5 µM (S. mansoni adult worms; [7]): 95% | EC50 (S. mansoni adult worms; first value of cell, * n = 1): 0.85 µM | CC50 at 72 h ([2]; MRC5 CC50): > 50 µM

Cc1ccccc1C(=O)N1N=C(Nc2ccccc2)SC1(C)C [compound 1355]
EC50 (S. mansoni schistosomula): 6.7 µM | inhibition at 12.5 µM [1, 3]: 75% | inhibition at 12.5 µM [1, 4]: 75% | EC50 [1, 5]: 5.8 µM | EC50 [1, 8]: 14.3 µM | inhibition at 12.5 µM (S. mansoni adult worms; [6]): 75% | inhibition at 12.5 µM (S. mansoni adult worms; [7]): 100% | EC50 (S. mansoni adult worms; first value of cell, * n = 1): 5.3 µM | EC50 (S. mansoni adult worms; [8]): 11.2 µM | CC50 at 72 h [2, 9]: > 50 µM | CC50 at 72 h [2, 10]: 33.8 µM

COc1ccc(-c2nnc3ccc(-c4cccc(C(C)C)c4)cn23)cc1OC [compound 1507]
EC50 (S. mansoni schistosomula): 6.6 µM | inhibition at 12.5 µM [1, 3]: 75% | inhibition at 12.5 µM [1, 4]: 75% | EC50 [1, 5]: 4 µM | EC50 [1, 8]: 9.8 µM | inhibition at 12.5 µM (S. mansoni adult worms; [6]): 75% | inhibition at 12.5 µM (S. mansoni adult worms; [7]): 88% | EC50 (S. mansoni adult worms; first value of cell, * n = 1): 1.6 µM | EC50 (S. mansoni adult worms; [8]): 3 µM | CC50 at 72 h [2, 9]: 18.6 µM

Clc1ccc(SCc2cc(N3CCCC3)nc(-c3ccccn3)n2)cc1 [compound 1716]
EC50 (S. mansoni schistosomula): 0.3 µM | inhibition at 12.5 µM [1, 3]: 0% | inhibition at 12.5 µM [1, 4]: 84% | EC50 [1, 5]: 11 µM | EC50 [1, 8]: 9.5 µM | inhibition at 12.5 µM (S. mansoni adult worms; [6]): 64% | inhibition at 12.5 µM (S. mansoni adult worms; [7]): 98% | EC50 (S. mansoni adult worms; first value of cell, * n = 1): 2.8 µM | EC50 (S. mansoni adult worms; [8]): 5.4 µM | CC50 at 72 h [2, 9]: > 50 µM | CC50 at 72 h [2, 10]: > 50 µM

COc1ccc(-c2cnc3cnc(-c4cccc(OC(C)C)c4)cn23)cc1 [compound 1945]
EC50 (S. mansoni schistosomula): 6.7 µM | inhibition at 12.5 µM [1, 3]: 75% | inhibition at 12.5 µM [1, 4]: 75% | EC50 [1, 5]: 5.7 µM | EC50 [1, 8]: 13.7 µM | inhibition at 12.5 µM (S. mansoni adult worms; [6]): 75% | inhibition at 12.5 µM (S. mansoni adult worms; [7]): 75% | EC50 (S. mansoni adult worms; first value of cell, * n = 1): 4.9 µM | CC50 at 72 h [2, 9]: 40.1 µM

c1ccc(-c2[nH]c3ccccc3c2C(c2ccccn2)N2CCCC2)cc1 (stereo not shown) [compound 1956]
EC50 (S. mansoni schistosomula): 0.5 µM | inhibition at 12.5 µM [1, 3]: 75% | inhibition at 12.5 µM [1, 4]: 100% | EC50 [1, 5]: 2.5 µM | EC50 [1, 8]: 3.7 µM | inhibition at 12.5 µM (S. mansoni adult worms; [6]): 56% | inhibition at 12.5 µM (S. mansoni adult worms; [7]): 81% | EC50 (S. mansoni adult worms; first value of cell, * n = 1): 3.2 µM | EC50 (S. mansoni adult worms; [8]): 11.8 µM | CC50 at 72 h [2, 9]: > 50 µM

c1ccc(Oc2ccc(-c3cncc(-c4ccc5[nH]ccc5c4)n3)cc2)cc1 [compound 2045]
EC50 (S. mansoni schistosomula): 1.4 µM | inhibition at 12.5 µM [1, 3]: 50% | inhibition at 12.5 µM [1, 4]: 100% | EC50 [1, 5]: 2.1 µM | EC50 [1, 8]: 3.6 µM | inhibition at 12.5 µM (S. mansoni adult worms; [6]): 37% | inhibition at 12.5 µM (S. mansoni adult worms; [7]): 88% | EC50 (S. mansoni adult worms; first value of cell, * n = 1): 3.7 µM | EC50 (S. mansoni adult worms; [8]): 11 µM | CC50 at 72 h [2, 9]: 20 µM

COc1ccccc1NC1=NN=C(c2cccc(N3CCCC3=O)c2)CS1 [compound 2389]
EC50 (S. mansoni schistosomula): 6.1 µM | inhibition at 12.5 µM [1, 3]: 0% | inhibition at 12.5 µM [1, 4]: 100% | EC50 [1, 5]: 5.1 µM | EC50 [1, 8]: 5 µM | inhibition at 12.5 µM (S. mansoni adult worms; [6]): 12.5% | inhibition at 12.5 µM (S. mansoni adult worms; [7]): 100% | EC50 (S. mansoni adult worms; first value of cell, * n = 1): 6 µM | EC50 (S. mansoni adult worms; [8]): 7.1 µM | CC50 at 72 h [2, 9]: > 50 µM | CC50 at 72 h [2, 10]: > 50 µM
